Experimental data from PubChem BioAssay (NCI).
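Growth conditions: 96-well plates. Treatment: test compound, 48 hours, 5 concentrations. Analysis: linear interpolation between bracketing concentrations; unreached endpoints set to highest concentration. TGI: total growth inhibition.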

Tests used:
Test in all cases: NCI anticancer screen, dose series, 48 h
OVCAR-8 ovarian = system: OVCAR-8 ovarian
COLO 205 colon = system: COLO 205 colon
SF-539 CNS = system: SF-539 CNS
HT29 colon = system: HT29 colon
TK-10 renal = system: TK-10 renal
SK-MEL-28 melanoma = system: SK-MEL-28 melanoma
HCT-15 colon = system: HCT-15 colon
OVCAR-5 ovarian = system: OVCAR-5 ovarian
CCRF-CEM leukemia = system: CCRF-CEM leukemia
UO-31 renal = system: UO-31 renal
MCF7 breast = system: MCF7 breast
HOP-62 NSCLC = system: HOP-62 NSCLC
MDA-MB-435 = system: MDA-MB-435
CAKI-1 renal = system: CAKI-1 renal
A498 renal = system: A498 renal
UACC-62 melanoma = system: UACC-62 melanoma
HCC-2998 colon = system: HCC-2998 colon
OVCAR-3 ovarian = system: OVCAR-3 ovarian
SK-MEL-2 melanoma = system: SK-MEL-2 melanoma
NCI-H226 lung = system: NCI-H226 lung
BT-549 breast = system: BT-549 breast
MALME-3M melanoma = system: MALME-3M melanoma
U251 CNS = system: U251 CNS
K-562 leukemia = system: K-562 leukemia
RPMI-8226 leukemia = system: RPMI-8226 leukemia
DU-145 prostate = system: DU-145 prostate
SW-620 colon = system: SW-620 colon
NCI/ADR-RES ovarian = system: NCI/ADR-RES ovarian
SF-268 CNS = system: SF-268 CNS
MDA-MB-231 breast = system: MDA-MB-231 breast
NCI-H522 lung = system: NCI-H522 lung
M14 melanoma = system: M14 melanoma
SN12C renal = system: SN12C renal
SNB-19 CNS = system: SNB-19 CNS
SK-OV-3 ovarian = system: SK-OV-3 ovarian
HS 578T breast = system: HS 578T breast
MDA-N = system: MDA-N
SF-295 CNS = system: SF-295 CNS
786-0 renal = system: 786-0 renal
ACHN renal = system: ACHN renal
PC-3 prostate = system: PC-3 prostate
UACC-257 melanoma = system: UACC-257 melanoma
A549 NSCLC = system: A549 NSCLC
LOX IMVI melanoma = system: LOX IMVI melanoma
EKVX NSCLC = system: EKVX NSCLC
IGROV1 ovarian = system: IGROV1 ovarian
NCI-H460 lung = system: NCI-H460 lung
HCT-116 colon = system: HCT-116 colon
HL-60(TB) leukemia = system: HL-60(TB) leukemia
NCI-H23 lung = system: NCI-H23 lung
SK-MEL-5 melanoma = system: SK-MEL-5 melanoma
SR leukemia = system: SR leukemia
OVCAR-4 ovarian = system: OVCAR-4 ovarian
KM12 colon = system: KM12 colon
MOLT-4 leukemia = system: MOLT-4 leukemia
T-47D breast = system: T-47D breast
SNB-75 CNS = system: SNB-75 CNS

Clc1ccc(CCN[C@H]2CCCC[C@H]2N2CCCC2)cc1Cl
TGI (OVCAR-8 ovarian): > 100 µM
TGI (COLO 205 colon): 29.8 µM
TGI (SF-539 CNS): 75.3 µM
TGI (HT29 colon): 49.9 µM
TGI (TK-10 renal): 22.9 µM
TGI (SK-MEL-28 melanoma): 86.2 µM
TGI (HCT-15 colon): 49.5 µM
TGI (OVCAR-5 ovarian): 78.1 µM
TGI (CCRF-CEM leukemia): > 100 µM
TGI (UO-31 renal): 31.2 µM
TGI (MCF7 breast): 35.7 µM
TGI (HOP-62 NSCLC): 48.2 µM
TGI (MDA-MB-435): 43.8 µM
TGI (CAKI-1 renal): > 100 µM
TGI (A498 renal): 40.5 µM
TGI (UACC-62 melanoma): 34.9 µM
TGI (HCC-2998 colon): 22.3 µM
TGI (OVCAR-3 ovarian): 65.2 µM
TGI (SK-MEL-2 melanoma): 44.1 µM
TGI (NCI-H226 lung): 48.7 µM
TGI (BT-549 breast): 59.9 µM
TGI (MALME-3M melanoma): 30.3 µM
TGI (U251 CNS): > 100 µM
TGI (K-562 leukemia): > 100 µM
TGI (RPMI-8226 leukemia): 97.1 µM
TGI (DU-145 prostate): 59.8 µM
TGI (SW-620 colon): > 100 µM
TGI (NCI/ADR-RES ovarian): > 100 µM
TGI (SF-268 CNS): > 100 µM
TGI (MDA-MB-231 breast): > 100 µM
TGI (NCI-H522 lung): 32.9 µM
TGI (M14 melanoma): 30.3 µM
TGI (SN12C renal): 54.3 µM
TGI (SNB-19 CNS): 69.5 µM
TGI (SK-OV-3 ovarian): 78.2 µM
TGI (HS 578T breast): > 100 µM
TGI (MDA-N): 38.5 µM
TGI (SF-295 CNS): 30.2 µM
TGI (786-0 renal): 77 µM
TGI (ACHN renal): > 100 µM
TGI (PC-3 prostate): > 100 µM
TGI (UACC-257 melanoma): 28.5 µM
TGI (A549 NSCLC): 89.6 µM
TGI (LOX IMVI melanoma): 32.4 µM
TGI (EKVX NSCLC): > 100 µM
TGI (IGROV1 ovarian): 35.1 µM
TGI (NCI-H460 lung): 58.4 µM
TGI (HCT-116 colon): > 100 µM
TGI (HL-60(TB) leukemia): 50 µM
TGI (NCI-H23 lung): 58.8 µM
TGI (SK-MEL-5 melanoma): 28.5 µM
TGI (SR leukemia): > 100 µM
TGI (OVCAR-4 ovarian): 89.4 µM
TGI (KM12 colon): 35.1 µM
TGI (MOLT-4 leukemia): > 100 µM

COc1cccc(C2SC(N)=Nc3c2c(C)nn3C(=O)Cc2ccccc2)c1 (stereo unspecified)
TGI (OVCAR-8 ovarian): > 100 µM
TGI (COLO 205 colon): > 100 µM
TGI (SF-539 CNS): > 100 µM
TGI (HT29 colon): > 100 µM
TGI (TK-10 renal): > 100 µM
TGI (SK-MEL-28 melanoma): > 100 µM
TGI (HCT-15 colon): > 100 µM
TGI (CCRF-CEM leukemia): > 100 µM
TGI (UO-31 renal): > 100 µM
TGI (MCF7 breast): > 100 µM
TGI (HOP-62 NSCLC): > 100 µM
TGI (MDA-MB-435): > 100 µM
TGI (CAKI-1 renal): > 100 µM
TGI (A498 renal): > 100 µM
TGI (UACC-62 melanoma): > 100 µM
TGI (HCC-2998 colon): > 100 µM
TGI (NCI-H226 lung): > 100 µM
TGI (BT-549 breast): > 100 µM
TGI (MALME-3M melanoma): > 100 µM
TGI (T-47D breast): > 100 µM
TGI (K-562 leukemia): > 100 µM
TGI (RPMI-8226 leukemia): > 100 µM
TGI (DU-145 prostate): > 100 µM
TGI (SW-620 colon): > 100 µM
TGI (SF-268 CNS): > 100 µM
TGI (MDA-MB-231 breast): > 100 µM
TGI (NCI-H522 lung): > 100 µM
TGI (M14 melanoma): > 100 µM
TGI (SN12C renal): > 100 µM
TGI (SNB-19 CNS): > 100 µM
TGI (SK-OV-3 ovarian): > 100 µM
TGI (HS 578T breast): > 100 µM
TGI (MDA-N): > 100 µM
TGI (SF-295 CNS): > 100 µM
TGI (786-0 renal): > 100 µM
TGI (ACHN renal): > 100 µM
TGI (PC-3 prostate): > 100 µM
TGI (UACC-257 melanoma): > 100 µM
TGI (A549 NSCLC): > 100 µM
TGI (LOX IMVI melanoma): > 100 µM
TGI (SNB-75 CNS): > 100 µM
TGI (EKVX NSCLC): > 100 µM
TGI (IGROV1 ovarian): > 100 µM
TGI (NCI-H460 lung): > 100 µM
TGI (HCT-116 colon): > 100 µM
TGI (HL-60(TB) leukemia): > 100 µM
TGI (NCI-H23 lung): > 100 µM
TGI (SK-MEL-5 melanoma): > 100 µM
TGI (SR leukemia): > 100 µM
TGI (KM12 colon): > 100 µM
TGI (MOLT-4 leukemia): > 100 µM
